One series deals with HUVEC cells. The series is described as follows: Cell proliferation assay using MTT. Format: cell-based, human. The procedure: The ability of the 10(4) peptide […] (SEQ ID No: 7) linked to the signal peptide […] (SEQ ID No: 1) to inhibit the proliferation of the above cell lines was assessed using the cell proliferation assay described in Example 2.1.
The subject of series [1] is HT29 colon cancer cells. The series is described as follows: Annexin-V-FITC FACScan apoptosis analysis. Format: cell-based. Conditions: peptide 16 hours, staurosporine 1 μM 1-2 hours. The procedure:
(§1) The killing of HT29 cancer cells compared to normal keratinocytes, human umbilical vein epithelial cells (HUVECs) and skin fibroblasts by the peptide […] (IK2) (SEQ ID No: 16) was assessed. Briefly, cells were recovered by trypsinisation and resuspended into fresh culture medium. Cell viability was determined (0.4% Trypan Blue in phosphate buffered saline (PBS) 1:1 v/v), and 0.75×10^6 viable cells were passaged into a 25 cm^2 tissue culture flask then cultured for 24 hours at 37° C., 5% CO2 in air. Immediately prior to the addition of the IK2 peptide, culture media was removed by decanting and replaced with fresh media (2.0 mls minus volume addition of IK2 peptide). The treated cells were then cultured for 16 hours.
(§2) Cells were prepared as above for the positive control. Staurosporine (Sigma #S5921) was added to the culture media to a final concentration of 1 μM and the cells exposed to the apoptosis inducer for a maximum of 1-2 hours. For a negative control, vehicle alone (normal saline) was added to cell culture media.
Apoptotic cells were detected by FACScan analysis utilising Annexin-V-FITC (Sigma kit #A2214) to indicate apoptosis. For the analysis, cells were recovered by trypsinisation as above, and resuspended (˜1×10^6 cells/ml) into 1× binding buffer (Sigma #B9796). […] Cells were incubated at room temperature for 10 minutes in the dark and fluorescence determined by flow cytometer. […]

Another series concerns skin fibroblasts (SkinF). The series is described as follows: Annexin-V-FITC FACScan apoptosis analysis. Conditions: skin fibroblast (SkinF), FIG. 23. The procedure:
as §1, §2
(§3) Apoptotic cells were detected by FACScan analysis utilising Annexin-V-FITC (Sigma kit #A2214) to indicate apoptosis. For the analysis, cells were recovered by trypsinisation as above, and resuspended (˜1×10^6 cells/ml) into 1× binding buffer (Sigma #B9796). 500 μl of cell suspension was then aliquoted into a 10 ml plastic test tube, prior to the addition of 5 μl of Annexin-V FITC and 10 μl of propidium iodide (Sigma #P2667). Cells were incubated at room temperature for 10 minutes in the dark and fluorescence determined by flow cytometer. Living cells are not stained by either Annexin-V-FITC or propidium iodide, while early apoptosis is indicated by staining with Annexin-V-FITC only and necrotic cells are stained by both Annexin-V-FITC and propidium iodide.

In the next series the test system is HUVEC. The series is described as follows: Annexin-V-FITC FACScan apoptosis analysis. Particulars: FIG. 23. The procedure: as §1, §2, §3
Series [2] deals with normal keratinocytes (KC). The series is described as follows: Annexin-V-FITC FACScan apoptosis analysis. Conditions: FIG. 23. The procedure:
as §1, §2, §3

Series [3] relates to HT29 colon cancer xenografts. The series is described as follows: In vivo tumour growth of HT29 colon cancer xenografts. Also noted: species or system Balb/c athymic mice. The procedure: Balb/c female athymic mice (8 weeks of age obtained from the Animal Resource Centre, Perth, Western Australia) were maintained under pathogen-free conditions and fed standard mouse chow and water ad lib. The mice were divided into groups of ten each. Mice in different groups were marked by ear notching. Briefly, the mice were anaesthetised using isoflurothane by inhalation and their ears marked using a surgical punch. After a recovery period of 48 hours, the mice in each group were injected with 1×10^6 HT29 colon cancer cells in standard DMEM culture medium subcutaneously dorsally behind the right shoulder using a 21-gauge needle. Animal weights and tumour sizes (breadth and length measured with callipers) were recorded weekly. Mice were sacrificed by CO2 asphyxiation and tumour mass excised for measurement.
Mice were injected twice weekly for four weeks commencing 10 days after tumour cell inoculation with DMEM, signal peptide ([…]) (designated “carrier”) (SEQ ID No: 1) or the […] (IK-1) (SEQ ID No: 19) peptide agent, and tumour growth was compared to an untreated control group.
Colon cancer inhibition by peptide […] (IK2P) (SEQ ID No: 18) administered intravenously to colon tumour bearing Balb/c athymic mice as per the protocol described above, is shown in FIG. 20. Colon tumour xenografts were achieved by injection of 1×10^6 HT29 colon cancer cells as above. […]

Another series deals with cancer cell lines. The series is described as follows: Proliferation of cancer cell lines with signal peptide alone. Format: cell-based. Conditions: any cancer cell lines tested, data not shown.
Series [4] has as its system HT29 colon cancer cells.
Experimental: (§7) An assay using the substrate methylthiazoletetrazolium (MTT) was utilised to determine the inhibitory affect of peptide agents on cancer cell proliferation. MTT substrate (CAT No. M-2128, Sigma) is cleaved in growing cells to yield a water insoluble salt. After solubilisation of the salt, a coloured product is produced that allows quantitation of the proliferative activity of the cultured cells. To prepare the MTT solution for use in the assay, 100 mg of MTT is mixed with 20 ml of PBS at pH 7.4. The resulting solution is filter sterilised (0.2 μM syringe filter) and stored at 4° C. protected from light until use.
(§8) Cells from the colon cancer cell line HT29 were seeded into wells of a 96-well microlitre plate in Dulbecco's Modified Eagle's Medium (DMEM) supplemented with 10% foetal bovine serum, glutamine, Hepes, and antibiotics at a concentration of 2,000 cells/100 μl and cultured for 24 hours in 5% CO2 in air at 37° C. After the 24 hour incubation period the test agent (solubilised in complete DMEM) is added to test wells to a final media volume of 200 μl and the microtitre plate is incubated for a further 48 to 72 hour period.
(§9) A 20 μl volume of the MTT solution prepared as above is then added to the test wells and the microtitre plate incubated for further 3 hours in 5% CO2 in air at 37° C. The plate is subsequently centrifuged for 5 minutes at 2,000 rpm in a microplate carrier. The supernatant is then removed from the wells using a multichannel pipette leaving MTT crystals in the wells.
(§10) To the wells is then added 150 μl of 6:1 v/v DMSO/glycine solution (0.1 M glycine and 0.1 M NaCl adjusted to pH 10.5 using NaOH) and the MTT crystals are dissolved by gently vortexing the microtitre plate. Absorbance is read at 550 nm using a microtitre plate reader.
Series [5] has as its system HT29 colon cancer cells. The series is described as follows: Cell proliferation assay using MTT. Particulars: for inhibition of proliferation (in words): relative to untreated control cells.
Experimental: as §7, §8, §9, §10
The next series concerns the target T1, cytoplasmic domain of β6 (Homo sapiens, UniProt P18564).
T1 sequence (P18564 737-788): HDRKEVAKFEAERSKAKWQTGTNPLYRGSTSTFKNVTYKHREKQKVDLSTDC
The series is described as follows: ELISA binding of MAP kinase fragments to the cytoplasmic domain of β6. Conditions: FIG. 1 and FIG. 4. A general note: In an ELISA, binding on a coated surface is turned into a signal by an enzyme label.

For a further series, the system named is ERK2. The series is described as follows: ELISA assay for detection of MAP kinase binding to biotinylated peptide. Conditions: result in words. The procedure: (§4) An assay was developed for detecting the ability of MAP kinases to bind with a peptide agent in solution.
(§5) Briefly, the MAP kinase is added to an eppendorf tube containing a biotinylated test peptide in phosphate buffered saline (PBS) at pH 7.4. The mixture is allowed to stand at room temperature for 10 minutes with occasional mixing by gentle inversion of the tube. The MAP kinase/test peptide mixture is then transferred to a pre-washed (PBS×3×100 μl) 96-well streptavidin coated ELISA microtitre plate and allowed to stand for 60 minutes at room temperature. At the end of the 60 minute period, the MAP kinase/test peptide mixture is tipped from the ELISA plate and the wells washed 3 times with wash solution (PBS+0.05% Tween−20).
(§6) Primary antibody detection for the MAP kinase is then added to the test wells and the ELISA plate is allowed to stand for a further 30 minutes at room temperature before the antibody solution is decanted from the plate and the wells again washed with the wash solution. Optimal dilutions of primary detection antibody are pre-determined for each target MAP kinase. Alkaline-phosphatase or other enzyme conjugated anti-primary species antibody at a dilution of 1:2000 v/v is subsequently added to the wells and the microtitre plate is allowed to stand for another 30 minutes at room temperature, before the washing step is repeated and phosphatase detection reagent is added to the wells and the colour reaction allowed to develop. The wells are read at 405 nm using a microplate reader (Bio-Rad). Controls comprise non-biotinylated peptide and biotinylated peptide alone

In the next series the target is T2, ERK1 (Homo sapiens, UniProt P27361).
T2 construct: GST (N, cleaved yes); made in house
T2 sequence (P27361 whole entry, species assumed): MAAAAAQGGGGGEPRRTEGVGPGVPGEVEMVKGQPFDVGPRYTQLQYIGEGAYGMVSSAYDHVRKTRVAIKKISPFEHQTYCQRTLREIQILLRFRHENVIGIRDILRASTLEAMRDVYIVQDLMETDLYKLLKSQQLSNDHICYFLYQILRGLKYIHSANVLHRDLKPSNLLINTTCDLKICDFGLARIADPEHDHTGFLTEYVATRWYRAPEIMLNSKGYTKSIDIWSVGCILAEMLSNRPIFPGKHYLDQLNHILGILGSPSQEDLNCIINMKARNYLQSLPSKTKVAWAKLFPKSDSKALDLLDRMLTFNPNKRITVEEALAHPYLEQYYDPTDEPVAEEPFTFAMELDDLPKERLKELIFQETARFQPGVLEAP
The series is described as above. Conditions: FIG. 2. The protocol:
as §4, §5, §6

Where two headings read alike, the source gives them in different places. Ends that are not written are not given here.

Experimental for cytoplasmic domain of β6: Primary antibody detection for the MAP kinase is then added to the test wells and the ELISA plate is allowed to stand for a further 30 minutes at room temperature before the antibody solution is decanted from the plate and the wells again washed with the wash solution. Optimal dilutions of primary detection antibody are pre-determined for each target MAP kinase. […] The wells are read at 405 nm using a microplate reader (Bio-Rad). […]
The binding of various MAP kinases to the cytoplasmic domain of β6 was tested using the assay described in Example 1.1. […] (SEQ ID No: 26), and the binding interaction detected using the anti-β6 antibody R6G9. […]

As to `O=c1[nH]cc(F)c(=O)[nH]1` [5-FU, 5-Fluorouracil, reference compound], the “impact on proliferation of normal HUVEC cells” value (“impact on proliferation” for short) with HUVEC cells is reported as “toxicity”.

For the molecule `CN[C@@H]1C[C@H]2O[C@@](C)([C@@H]1OC)n1c3ccccc3c3c4c(c5c6ccccc6n2c5c31)C(=O)NC4` [staurosporin, Staurosporine, reference compound], the induction of apoptosis result is reported as “apoptosis was induced” with HT29 colon cancer cells [1], “induced apoptosis” with skin fibroblasts (SkinF), “induced apoptosis” in the series on HUVEC and “induced apoptosis” in series [2].

Regarding “AAVALLPAVLLALLA [nfkb, reference compound]”, the “mouse weight at day 28” value in series [3] (intra-tumoural injections, day 28 relative to time 0 / control group, FIG. 18B) is “marked weight loss”.

Turning to “AAVALLPAVLLALLAP [nfkbp, K-FGF signal peptide]”, the “effect of signal peptide alone on proliferation” value in the series on cancer cell lines was “essentially no effect”.

For the molecule AAVALLPAVLLALLAPRSKAKNPLYR [nfkb10(4)p], the “inhibition of proliferative response compared to 5-FU” value in the series on HT29 colon cancer cells [4] is on record as “more effective”. For the same molecule, the “impact on proliferation” value in the series on HUVEC cells is “relatively minimal”.

Take “AAVALLPAVLLALLARSKAKNPLYR (also: acetate salt) [nfkb10(4)acetate]”: the “inhibition of proliferation at the highest concentration” value with HT29 colon cancer cells [5] (HT29, MTT, highest concentration of peptide employed) is recorded as “total inhibition”.

AAVALLPAVLLALLARSKAKNPLYR [IK2]: the induction of apoptosis entry (in the series on skin fibroblasts (SkinF); in the series on HUVEC; in [2]) was “essentially no apoptosis” each time.

For AAVALLPAVLLALLARSKAKWQTGTNPLYR [IK-1], the “mouse weight at day 28” value in [3] (mouse, in vivo) is given as “Substantially no difference”. The “impact on proliferation” value with HUVEC cells (HUVEC, MTT) is “essentially no impact”.

Consider AAVALLPAVLLALLARSRARNPLYR [nf-b5-10-4], for which, in the series on HT29 colon cancer cells [5] (HT29, MTT, FIG. 14G), the “degree of inhibition compared with nf-b5-frag 5” value is “greater degree of inhibition”. In addition, the “inhibition of proliferation (in words)” value with HT29 colon cancer cells [5] (HT29, MTT) was “inhibited proliferation”.

Take “Alkyl(4): stearic acid coupled to the RSKAKNPLYR peptide (also: stearic acid coupled (site not given here))”: the “inhibition of proliferation (in words)” value in the series with HT29 colon cancer cells [5] (HT29, MTT) was “effective”.

As for “GRKKRRQRRRPQCG [TAT-G, reference compound]”, the “toxicity of carrier peptide alone” value in the series with HT29 colon cancer cells [5] (HT29, FIG. 8 and FIG. 9) was “some toxicity”.

On to “HRDLKPSNLAVNEDCELKILDFGLAR [p38 MAP kinase fragment]”, for which the “binding to the cytoplasmic domain of β6” value with cytoplasmic domain of β6 is recorded as “bound”.

For KEKLKNPLFK [β2 (10(4)], the “binding to ERK2” value with ERK2 is “bound by ERK2”.

Turning to RARAKNPLYK, the “binding to ERK2” value in the series on ERK2 is reported as “still bound by ERK2”.

With RSKAKNPLYR [10(4)], the “binding to ERK2” value with ERK2 is “binds to ERK2”; with ERK2 (listed as RSKAKNPLYR), “still bound by ERK2”.

Consider RSKAKWQTGTNPLYR, for which, in the series on ERK2, the “binding to ERK2” value was “bind”. For the same molecule, in the series with ERK1, the “binding to ERK1” value was “bind”.

Consider RSRARNPLYR, for which the “binding to ERK2” value with ERK2 is listed as “still bound by ERK2”.

On to “VTVLALGALAGVGVGRSKAKWQTGTNPLYR [Frag 5B3]”, for which the “proliferation of the cells relative to control cells” value with HT29 colon cancer cells [5] (HT29, MTT, higher concentration of the peptides used, FIG. 5) is given as “about 37%”.

Source of the values: US9765113B2, “Methods and agents for the treatment of cancer” (INTERK PEPTIDE THERAPEUTICS LIMITED, priority 2003, dated 2017).
